What was measured:
[1] = Isomerization without enzyme (Example 3), ribose; conditions: NaOH; remark (2): reaction time 6 h, initial pH 10.0-10.6; blank 3.9-19.5%
glucose isomerase = experiment: Enzymatic isomerization of glucose into fructose in presence of organogermanium compound (Example 1); format: biochemical, Streptomyces griseofuscus S-41; conditions: 60° C., pH 8.0, substrate solution 40% glucose and 1.2M organogermanium compound, blank 50%
Method: A solution containing 40% glucose and 1.2M organogermanium compound was prepared according to the following procedure. 0.8 g of anhydrous glucose was dissolved in 0.8 ml of deionized water. To the solution was added, in small portions, 0.407 g of the organogermanium compound (1) as an isomerization accelerator of the present invention [a compound represented by formula (II) wherein n=1, R1 =R2 =R3 and X1 =OH] while the pH of the solution was maintained at very weak alkalinity, to completely dissolve the compound in the solution. Thereto was added 4.9 mg of magnesium sulfate, and the pH of the resulting mixture was adjusted to 8.0. Then, deionized water was added to make the total volume 2.0 ml, whereby a substrate solution was prepared.
Two other substrate solutions containing the organogermanium compounds (18) [a compound represented by formula (II) wherein n=1, R1 =R2 =H, R3 =NH2 and X1 =OH] and (23) [a compound represented by formula (II) wherein n=1, R1 =H, R2 =C6 H5, R3 =NH2 and X1 =OH], respectively, were prepared in the same manner as above except that the organogermanium compounds (18) and (23) were used in amounts of 0.443 g and 0.638 g, respectively (these amounts corresponded to 1.2M of germanium).
An isomerization enzyme (glucose isomerase) extracted from the cells of Streptomyces griseofuscus S-41 was purified according to a known method using an ion exchange column, a gel filtration column or the like, until a single band was obtained electrophoretically. The resulting purified enzyme was used as a standard enzyme.
In a small test tube were placed 0.7 ml of the above substrate solution, 0.1 ml of a 200 mM MOPS buffer solution (pH 8.0) and 0.2 ml of a solution containing the above-prepared standard enzyme (5.69 mg/ml). […] The amount of formed fructose in the microvial was determined by high-performance liquid chromatography using a column [LC7A, SCR-101 (N) manufactured by Shimadzu Corp.] to examine the change with time, of ratio of isomerization of glucose into fructose.

[2] = Isomerization test at pH 10 (Example 4), ribose; conditions: pH 10 with aqueous sodium hydroxide, 80° C., 3 hours; blank 2.89
Method: (§1) The same isomerization test as in Example 2 was conducted with slight modifications.
(§2) That is, 200 μl of one of various saccharide solutions and 200 μl of one of various organogermanium compound solutions were placed in a small test tube. The mixture was adjusted to pH 10 with an aqueous sodium hydroxide solution, after which the tube was placed in a water bath of 80° C. for a reaction. 3 hours later, the reaction was terminated and the amount of each saccharide isomerized was determined by high-performance liquid chromatography using 7A (a column) manufactured by Shimadzu Corp.

[3] = Isomerization without enzyme (Example 3), lactose; conditions: remark (3): reaction time 6 h, initial pH 10.0-11.0
[4] = Isomerization without enzyme (Example 3), maltose; conditions: remark (3): reaction time 6 h, initial pH 10.0-11.0
[5] = Toxicity, LD50 on oral administration to mice; conditions: mouse, in vivo, orally administered to mice
Excerpt: (§3) The organogermanium compound used in the present invention has very low toxicity.

[6] = Isomerization without enzyme (Example 3), glucose; conditions: remark (1): initial pH 8.0-8.53
Method: 200 μl of the 14% or 28% glucose solution and 200 μl of the organogermanium compound solution (pH 8.00 or 8.53) were placed in a small test tube. Also, 200 μl of the 14% or 28% glucose solution and 200 μl of the weakly alkaline electrolytic water were placed in a small test tube. Each test tube was thoroughly shaken and then placed in a water bath of 80° C. to give rise to a reaction. […] Thereafter, the mixture was diluted 100-fold with deionized water to determine the amount of formed fructose and the amount of residual glucose by high-performance liquid chromatography using 7A (a column) manufactured by Shimadzu Corp. […]

[7] = Toxicity, LD50 on oral administration to rats; conditions: rat, in vivo, orally administered to rats
Excerpt: as §3

[8] = Isomerization test at pH 10 (Example 4), mannose; conditions: pH 10 with aqueous sodium hydroxide, 80° C., 3 hours; blank 12.48
Method: as §1, §2

[9] = Isomerization test at pH 10 (Example 4), xylose; conditions: pH 10 with aqueous sodium hydroxide, 80° C., 3 hours; blank 5.59
Method: as §1, §2

[10] = Isomerization test at pH 10 (Example 4), galactose; conditions: pH 10 with aqueous sodium hydroxide, 80° C., 3 hours; blank 7.60
Method: as §1, §2

[11] = Isomerization test at pH 10 (Example 4), arabinose; conditions: pH 10 with aqueous sodium hydroxide, 80° C., 3 hours; blank 2.75
Method: as §1, §2

[12] = Isomerization without enzyme (Example 3), mannose; conditions: remark (2): reaction time 6 h, initial pH 10.0-10.6
[13] = Isomerization without enzyme (Example 3), xylose; conditions: remark (2): reaction time 6 h, initial pH 10.0-10.6
Method: [The procedure below names another target; the source says it served here with some conditions changed.] 200 μl of the 14% or 28% glucose solution and 200 μl of the organogermanium compound solution (pH 8.00 or 8.53) were placed in a small test tube. Also, 200 μl of the 14% or 28% glucose solution and 200 μl of the weakly alkaline electrolytic water were placed in a small test tube. Each test tube was thoroughly shaken and then placed in a water bath of 80° C. to give rise to a reaction. 1-3 hours later, 50 μl of the reaction mixture was added to 50 μl of 0.5N HClO4 to terminate the reaction. Thereafter, the mixture was diluted 100-fold with deionized water to determine the amount of formed fructose and the amount of residual glucose by high-performance liquid chromatography using 7A (a column) manufactured by Shimadzu Corp.
Other compounds represented by formula (I) were subjected to 3-hour isomerization in the same manner as in Example 2.

[14] = Isomerization test at pH 10 (Example 4), maltose; conditions: pH 10 with aqueous sodium hydroxide, 80° C., 3 hours; blank 12.59
Method: as §1, §2

[15] = Isomerization without enzyme (Example 3), arabinose; conditions: remark (2):, initial pH 10.0-10.6
[16] = electrolytic water, blank 0-0.4%
[17] = electrolytic water, blank 0.4-1.2%

With `O=C(O)C[CH2][Ge](=[O])[O][Ge](=[O])[CH2]CC(=O)O` [Compound 1] the “Isomerization ratio Ribose NaOH” value [1] was 44.7%, the “isomerization ratio in equilibrium” value (glucose isomerase) was 75% and the “Isomerization (%) Ribose” value [2] was 27.76%. The “Isomerization ratio Lactose NaOH” value ([3]; NaOH, blank 34.0-38.6%) was 70.3%, the “Isomerization ratio Lactose Electrolytic water” value [3, 16] was 58.3% and the “Isomerization ratio Maltose NaOH” value ([4]; NaOH, blank 34.0-38.6%) was 68.7%. For the same molecule, the “Isomerization ratio Maltose Electrolytic water” value [4, 16] was 43.2%, the LD50 [5] was no less than 6000 mg/kg and the “Isomerization ratio Glucose NaOH” value ([6]; NaOH, blank 32.3%) was 98.9%. For the same molecule, the “Isomerization ratio Glucose Electrolytic water” value ([6]; electrolytic water, blank 2.1-3.1%) was 94.7%, the LD50 [7] was no less than 10000 mg/kg and the “Isomerization (%) Mannose” value [8] was 37.23%. For the same molecule, the “Isomerization (%) Xylose” value [9] was 40.66%, the “Isomerization (%) Galactose” value [10] was 38.67% and the “Isomerization (%) Arabinose” value [11] was 20.87%. For the same molecule, the “Isomerization ratio Mannose NaOH” value ([12]; NaOH, blank 3.9-19.5%) was 24.3%, the “Isomerization ratio Mannose Electrolytic water” value [12, 17] was 13.1% and the “Isomerization ratio Xylose NaOH” value ([13]; NaOH, blank 3.9-19.5%) was 30.3%. The “Isomerization ratio Xylose Electrolytic water” value [13, 17] was 19.6%, the “Isomerization (%) Maltose” value [14] was 78.91% and the “Isomerization ratio Arabinose NaOH” value ([15]; NaOH, blank 3.9-19.5%) was 22.6%. The “Isomerization ratio Arabinose Electrolytic water” value [15, 17] was 12.6%.

— patent publication US5679787A, “Process for isomerization of compound of aldose structure into compound of ketose structure, and isomerization agent or accelerator used therein” (priority 1992, dated 1997)
